Drawing on patent publication US20210371459A1, “DIMERIC PEPTIDE INHIBITORS OF APOPTOSIS PROTEINS” (Hepagene Therapeutics (HK) Limited, priority 2017, published 2021), this text covers IC50 for nine compounds.

What all share (settings): FP, probe AbuRPFK-5FAM, 60 min at 25° C.
The target of one experiment is T1, cIAP2-BIR3 (Homo sapiens, UniProt Q13489).
T1 construct: cIAP2-BIR3; Reaction Biology; APT-11-372; purchased Reaction Biology APT-11-372
Description: cIAP2-BIR3 fluorescence polarization binding assay. The text has this: (§1) IAPs are one main cause of cancer development and may result from overexpression of anti-apoptotic proteins. This protocol establishes three binding assays for XIAP Bir3 domain, cIAP1 and cIAP2 using FP (Fluorescence polarization) technology. The fluorescence probe used is a synthetic peptide conjugated to 5-carboxyfluorescein (AbuRPFK-5FAM). The fluorescence polarization value (mP) was detected by Envision, which was used to reflect the binding degree of protein and fluorescent marker. Reagents and equipment used in the assay are listed below, followed by the protocol.
(§2) • a) Prepare 100 times of the final cpd concentration in appropriate tube and transfer 5 uL compound (“cpd”) to 45 μL 1× reaction buffer with 10% DMSO. • b) The final reference cpd concentration is 10000, 3333.3, 1111.1, 370.4, 123.4, 41.2, 13.7, 4.57, 1.52, 0.51, 0.17 and 0 nM. So the 100 times of the concentration is 1000, 333.3, 111.1, 37.04, 12.34, 4.12, […], 0.15, 0.05, 0.017 and 0 μM. The final test cpds concentration is 3333.3, 1111.1, 370.4, 123.4, 41.2, 13.7, 4.57, 1.52, 0.51, 0.17, 0.057 and 0 nM. So the 100 times of the concentration is 333.3, 111.1, 37.04, 12.34, 4.12, […], 0.15, 0.05, 0.017, 0.0057 and 0 μM • c) Add 8 μL/well each dose enzyme to 384 well microplate (ProxiPlate-384 F Plus, 6008260) using multichannel pipette, prepared in step 2.1.1.2 • d) Centrifuge at 1000 rpm. • e) Add 2 μL/well cpd to 384 well microplate (ProxiPlate-384 F Plus, 6008260) using multichannel pipette, prepared in step a). • f) Centrifuge at 1000 rpm. RT, 15 min. • g) Start the assay by adding 10 uL/well substrate (prepared in step 2.1.1.3) to the same 384 well microplate using multichannel pipette • h) Centrifuge at 1000 rpm. • i) Cover the assay plate and incubate for 60 min at 25° C. • j) Read on Envision 2104 for mP and plot the IC50s with mP values. • k) Data analysis: IC50s were determined based on a non-linear regression analysis of data collected.
On the technique in general: Fluorescence polarisation rises when a labelled molecule tumbles more slowly, as on binding a larger partner.

Another experiment addresses T2, XIAP-BIR3 (Homo sapiens, UniProt P98170).
T2 construct: purchased Reaction Biology APT-11-374
Description: XIAP-BIR3 fluorescence polarization binding assay.
Description: as §1, §2

A further experiment deals with T3, cIAP1-BIR3 (Homo sapiens, UniProt Q13490).
T3 construct: cIAP1-BIR3; Reaction Biology; APT-11-370; purchased Reaction Biology APT-11-370
Description: cIAP1-BIR3 fluorescence polarization binding assay.
Description: as §1, §2

Molecules are shown by their SMILES.

By IC50 is commonly meant the midpoint of a concentration-inhibition curve. A higher IC50 goes with a need for much substance.

T2 sequence (P98170 241-356 limits assumed): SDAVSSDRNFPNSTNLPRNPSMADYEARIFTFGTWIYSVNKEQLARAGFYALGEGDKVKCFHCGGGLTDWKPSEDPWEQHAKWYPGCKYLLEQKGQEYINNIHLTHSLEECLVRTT
T3 sequence (Q13490 253-363 limits assumed): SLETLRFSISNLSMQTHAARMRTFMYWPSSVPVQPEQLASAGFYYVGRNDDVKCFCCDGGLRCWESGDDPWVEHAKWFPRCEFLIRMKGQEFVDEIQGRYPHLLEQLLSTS
T1 sequence (Q13489 238-349 limits assumed): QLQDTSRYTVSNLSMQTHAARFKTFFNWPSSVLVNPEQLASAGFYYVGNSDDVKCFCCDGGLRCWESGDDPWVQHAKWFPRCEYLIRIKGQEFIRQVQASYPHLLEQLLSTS

With `CN[C@@H](C)C(=O)N[C@H](C(=O)N1C[C@@H](OCCC(=O)N2CCN(C(=O)CCO[C@H]3C[C@@H](C(=O)N[C@@H]4CCCc5ccccc54)N(C(=O)[C@@H](NC(=O)[C@H](C)NC)C4CC4)C3)CC2)C[C@H]1C(=O)N[C@@H]1CCCc2ccccc21)C1CC1` [Compound IV-C, (2S,4S)-1-[(2S)-2-Cyclopropyl-2-[(2S)-2-(methylamino)propanamido]acetyl]-4-{3-[4-(3-{[(3S,5S)-1-[(2S)-2-cyclopropyl-2-[(2S)-2-(methylamino)propanamido]acetyl]-5-{[(1R)-1,2,3,4-tetrahydronaphthalen-1-yl]carbamoyl}pyrrolidin-3-yl]oxy}propanoyl)piperazin-1-yl]-3-oxopropoxy}-N-[(1R)-1,2,3,4-tetrahydronaphthalen-1-yl]pyrrolidine-2-carboxamide], the IC50 at cIAP2-BIR3 was 0.0001 to 0.01 µM; on XIAP-BIR3, 0.1 to 1 µM; on cIAP1-BIR3 it was 0.0001 to 0.01 µM.

Take `CN[C@@H](C)C(=O)N[C@H](C(=O)N1C[C@@H](OCCOCCO[C@H]2C[C@@H](C(=O)N[C@@H]3CCCc4ccccc43)N(C(=O)[C@@H](NC(=O)[C@H](C)NC)C3CCCCC3)C2)C[C@H]1C(=O)N[C@@H]1CCCc2ccccc21)C1CCCCC1` [Compound V, (2S,4S)-1-[(2S)-2-Cyclohexyl-2-[(2S)-2-(methylamino)propanamido]acetyl]-4-[2-(2-[[(3S,5S)-1-[(2S)-2-cyclohexyl-2-[(2S)-2-(methylamino)propanamido]acetyl]-5-[[(1R)-1,2,3,4-tetrahydronaphthalen-1-yl]carbamoyl]pyrrolidin-3-yl]oxy]ethoxy)ethoxy]-N-[(1R)-1,2,3,4-tetrahydronaphthalen-1-yl] pyrrolidine-2-carboxamide]: the IC50 at cIAP2-BIR3 lay within 0.0001 to 0.01 µM; at XIAP-BIR3, 0.01 to 0.1 µM; at cIAP1-BIR3, 0.0001 to 0.01 µM.

In the case of `CC[C@H](NC(=O)[C@H](C)NC)C(=O)N1CCC[C@H]1C(=O)N[C@@H]1CCCc2c1cccc2N1CCN(c2cccc3c2CCC[C@H]3NC(=O)[C@@H]2CCCN2C(=O)[C@H](CC)NC(=O)[C@H](C)NC)CC1` [Compound I-B, (2S)-1-[(2S)-2-[(2S)-2-(Methylamino)propanamido]butanoyl]-N-[(1R)-5-[4-[(5R)-5-[(2S)-1-[(2S)-2-[(2S)-2-(methylamino)propanamido]butanoyl]pyrrolidine-2-amido]-5,6,7,8-tetrahydronaphthalen-1-yl]piperazin-1-yl]-1,2,3,4-tetrahydronaphthalen-1-yl]pyrrolidine-2-carboxamide], the IC50 at cIAP2-BIR3 lay in the range of 0.01 to 0.1 µM; at XIAP-BIR3 it was 0.1 to 1 µM; at cIAP1-BIR3 it was 0.0001 to 0.01 µM.

Consider `CN[C@@H](C)C(=O)N[C@H](C(=O)N1C[C@@H](OCCCN2CCN(CCCO[C@H]3C[C@@H](C(=O)N[C@@H]4CCCc5ccccc54)N(C(=O)[C@@H](NC(=O)[C@H](C)NC)C4CCC4)C3)CC2)C[C@H]1C(=O)N[C@@H]1CCCc2ccccc21)C1CCC1` [Compound II-H, (2S,4S)-1-[(2S)-2-Cyclobutyl-2-[(2S)-2-(methylamino)propanamido]acetyl]-4-[3-[4-(3-[[(3S,5S)-1-[(2S)-2-cyclobutyl-2-[(2S)-2-(methylamino)propanamido]acetyl]-5-[[(1R)-1,2,3,4-tetrahydronaphthalen-1-yl]carbamoyl]pyrrolidin-3-yl]oxy]propyl)piperazin-1-yl]propoxy]-N-[(1R)-1,2,3,4-tetrahydronaphthalen-1-yl]pyrrolidine-2-carboxamide], for which the IC50 at cIAP2-BIR3 fell in the range of 0.01 to 0.1 µM; on XIAP-BIR3, 0.01 to 0.1 µM; at cIAP1-BIR3, 0.0001 to 0.01 µM.

With `CN[C@@H](C)C(=O)N[C@H](C(=O)N1C[C@@H](OCCC(=O)N2CCN(C(=O)CCO[C@H]3C[C@@H](C(=O)N[C@@H]4CCCc5ccccc54)N(C(=O)[C@@H](NC(=O)[C@H](C)NC)C4CCC4)C3)CC2)C[C@H]1C(=O)N[C@@H]1CCCc2ccccc21)C1CCC1` [Compound IV-G, (2S,4S)-1-[(2S)-2-Cyclobutyl-2-[(2S)-2-(methylamino)propanamido]acetyl]-4-[3-[4-(3-[[(3S,5S)-1-[(2S)-2-cyclobutyl-2-[(2S)-2-(methylamino)propanamido]acetyl]-5-[[(1R)-1,2,3,4-tetrahydronaphthalen-1-yl]carbamoyl]pyrrolidin-3-yl]oxy]propanoyl)piperazin-1-yl]-3-oxopropoxy]-N-[(1R)-1,2,3,4-tetrahydronaphthalen-1-yl]pyrrolidine-2-carboxamide], the IC50 was 0.01 to 0.1 µM on cIAP2-BIR3, 0.01 to 0.1 µM at XIAP-BIR3 and 0.0001 to 0.01 µM at cIAP1-BIR3.

For `CN[C@@H](C)C(=O)N[C@H](C(=O)N1C[C@@H](OCCCN2CCN(CCCO[C@H]3C[C@@H](C(=O)N[C@@H]4CCCc5ccccc54)N(C(=O)[C@@H](NC(=O)[C@H](C)NC)C4CCCCC4)C3)CC2)C[C@H]1C(=O)N[C@@H]1CCCc2ccccc21)C1CCCCC1` [Compound II, (2S,4S)-1-[(2S)-2-Cyclohexyl-2-[(2S)-2-(methylamino)propanamido]acetyl]-4-[3-[4-(3-[[(3S,5S)-1-[(2S)-2-cyclohexyl-2-[(2S)-2-(methylamino)propanamido]acetyl]-5-[[(1R)-1,2,3,4-tetrahydronaphthalen-1-yl]carbamoyl]pyrrolidin-3-yl]oxy]propyl)piperazin-1-yl]propoxy]-N-[(1R)-1,2,3,4-tetrahydronaphthalen-1-yl]pyrrolidine-2-carboxamide], the figures for the IC50 on cIAP2-BIR3, at XIAP-BIR3 and on cIAP1-BIR3 were 0.01 to 0.1 µM, 0.01 to 0.1 µM and 0.0001 to 0.01 µM, respectively.

In the case of `CC[C@H](NC(=O)[C@H](C)NC)C(=O)N1C[C@@H](OCCC(=O)N2CCN(C(=O)CCO[C@H]3C[C@@H](C(=O)N[C@@H]4CCCc5ccccc54)N(C(=O)[C@H](CC)NC(=O)[C@H](C)NC)C3)CC2)C[C@H]1C(=O)N[C@@H]1CCCc2ccccc21` [Compound IV-B, (2S, 4S)-1-[(2S)-2-[(2S)-2-(Methylamino)propanamido]butanoyl]-4-[3-[4-(3-[[(3S,5S)-1-[(2S)-2-[(2S)-2-(methylamino)propanamido]butanoyl]-5-[[(1R)-1,2,3,4-tetrahydronaphthalen-1-yl]carbamoyl]pyrrolidin-3-yl]oxy]propanoyl)piperazin-1-yl]-3-oxopropoxy]-N-[(1R)-1,2,3,4-tetrahydronaphthalen-1-yl]pyrrolidine-2-carboxamide], the IC50 on cIAP2-BIR3 lay within 0.01 to 0.1 µM; at XIAP-BIR3, 0.1 to 1 µM; at cIAP1-BIR3, 0.0001 to 0.01 µM.

On to `CN[C@@H](C)C(=O)N[C@@H](C)C(=O)N1C[C@@H](OCCCN2CCN(CCCO[C@H]3C[C@@H](C(=O)N[C@@H]4CCCc5ccccc54)N(C(=O)[C@H](C)NC(=O)[C@H](C)NC)C3)CC2)C[C@H]1C(=O)N[C@@H]1CCCc2ccccc21` [Compound II-A, (2S,4S)-1-[(2S)-2-[(2S)-2-(Methylamino)propanamido]propanoyl]-4-{3-[4-(3-{[(3S,5S)-1-[(2S)-2-[(2S)-2-(methylamino)propanamido]propanoyl]-5-{[(1R)-1,2,3,4-tetrahydronaphthalen-1-yl]carbamoyl}pyrrolidin-3-yl]oxy}propyl)piperazin-1-yl]propoxy}-N-[(1R)-1,2,3,4-tetrahydronaphthalen-1-yl]pyrrolidine-2-carboxamide], for which the IC50 was 0.01 to 0.1 µM at cIAP2-BIR3, 0.1 to 1 µM on XIAP-BIR3 and 0.0001 to 0.01 µM on cIAP1-BIR3.

Regarding `CN[C@@H](C)C(=O)N[C@H](C(=O)N1CCC[C@H]1C(=O)N[C@@H]1CCCc2c1cccc2N1CCN(c2cccc3c2CCC[C@H]3NC(=O)[C@@H]2CCCN2C(=O)[C@@H](NC(=O)[C@H](C)NC)C(C)(C)C)CC1)C(C)(C)C` [Compound I-A, (2S,2′S,29S,34S)—N, N′-((1R,1′R)-5,5′-(Piperazine-1,4-diyl)bis(1,2,3,4-tetrahydronaphthalene-5,1-diyl))bis(1-((S)-3,3-dimethyl-2-((S)-2-(methylamino)propanamido)butanoyl)pyrrolidine-2-carboxamide)], the IC50 at cIAP2-BIR3 fell in the range of 0.01 to 0.1 µM; at XIAP-BIR3, 0.1 to 1 µM; at cIAP1-BIR3, 0.0001 to 0.01 µM.
